14 molecules from ChEMBL document CHEMBL4196074, “Metallomics for Alzheimer's disease treatment: Use of new generation of chelators combining metal-cation binding and transport properties” (Eur J Med Chem, 2018) can be followed below.

SMILES strings stand for the structures. Active and inactive are the calls of the source. Unless noted, the rule behind the calls is not given here.

In series [1] the test system is SH-SY5Y. Nature of the series: Inhibition of Zn2+-mediated ROS generation in human SH-SY5Y cells expressing APPswe mutant at 1 uM after 72 hrs by DCF-DA dye-based fluorescence spectroscopic analysis. Format: cell-based.
The subject of series [2] is SH-SY5Y. Nature of the series: Inhibition of Fe3+-mediated amyloid beta (1 to 42 residues) production in human SH-SY5Y cells expressing APPswe mutant at 1 uM after 72 hrs by ELISA based spectrophotometric analysis. Format: cell-based. For orientation: ELISA stands for enzyme-linked immunosorbent assay.
Series [3] relates to SH-SY5Y. Nature of the series: Antiproliferative activity against human SH-SY5Y cells at 1 uM after 24 to 72 hrs by WST1 assay. In kind it is cell-based. In general terms: Formazan colour is commonly taken as a measure of viable cells.
Series [4] concerns SH-SY5Y. Description: Inhibition of Fe3+-mediated ROS generation in human SH-SY5Y cells expressing APPswe mutant at 1 uM after 72 hrs by DCF-DA dye-based fluorescence spectroscopic analysis. In kind it is cell-based.
Series [5] deals with SH-SY5Y. Nature of the series: Inhibition of Zn2+-mediated amyloid beta (1 to 42 residues) production in human SH-SY5Y cells expressing APPswe mutant at 1 uM after 72 hrs by ELISA based spectrophotometric analysis. Format: cell-based.
Series [6] has as its system SH-SY5Y. Nature of the series: Neuroprotective activity against amyloid beta (1 to 42 residues) induced cell death in human SH-SY5Y cells expressing APPswe mutant at 1 uM after 48 hrs by WST1 assay. In kind it is functional, cell-based.
A short description of series [7]: Metal chelating activity assessed as compound-Fe3+ complex formation by UV-vis spectrophotometric analysis.
Series [8] relates to SH-SY5Y. Nature of the series: Inhibition of Cu2+-mediated amyloid beta (1 to 42 residues) production in human SH-SY5Y cells expressing APPswe mutant at 1 uM after 72 hrs by ELISA based spectrophotometric analysis. In kind it is cell-based.
Series [9] has as its system SH-SY5Y. Description: Inhibition of Cu2+-mediated ROS generation in human SH-SY5Y cells expressing APPswe mutant at 1 uM after 72 hrs by DCF-DA dye-based fluorescence spectroscopic analysis. Format: cell-based.
A short description of series [10]: Metal chelating activity assessed as compound-Zn2+ complex formation by UV-vis spectrophotometric analysis.
Series [11] is described as follows: Metal chelating activity assessed as compound-Cu2+ complex formation by UV-vis spectrophotometric analysis.
In series [12] the target is Acetylcholinesterase (Homo sapiens) (UniProt P22303). Nature of the series: Inhibition of acetylcholinesterase (unknown origin) at 1 uM using acetylthiocholine chloride as substrate measured for 5 to 40 mins.
Acetylcholinesterase (Homo sapiens), sequence (P22303 whole entry): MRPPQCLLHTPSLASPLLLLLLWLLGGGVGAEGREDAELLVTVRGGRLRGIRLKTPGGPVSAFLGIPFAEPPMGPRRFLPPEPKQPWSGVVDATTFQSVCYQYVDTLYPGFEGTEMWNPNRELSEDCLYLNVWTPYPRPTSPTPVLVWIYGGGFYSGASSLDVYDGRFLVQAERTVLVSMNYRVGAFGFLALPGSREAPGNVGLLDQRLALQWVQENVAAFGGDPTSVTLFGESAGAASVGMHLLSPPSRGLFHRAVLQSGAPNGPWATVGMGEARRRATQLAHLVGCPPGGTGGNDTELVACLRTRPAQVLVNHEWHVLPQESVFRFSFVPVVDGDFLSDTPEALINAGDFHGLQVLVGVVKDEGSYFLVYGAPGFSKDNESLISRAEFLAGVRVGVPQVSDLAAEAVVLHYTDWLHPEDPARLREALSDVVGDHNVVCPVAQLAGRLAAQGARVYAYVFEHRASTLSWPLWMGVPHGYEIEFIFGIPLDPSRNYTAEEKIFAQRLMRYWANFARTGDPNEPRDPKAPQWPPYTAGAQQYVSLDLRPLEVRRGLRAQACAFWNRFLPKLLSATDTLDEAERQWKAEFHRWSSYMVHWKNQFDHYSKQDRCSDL
Series [13] has as its system SH-SY5Y. Nature of the series: Antiproliferative activity against human SH-SY5Y cells at 1 uM after 48 hrs by WST1 assay. In kind it is cell-based.
The subject of series [14] is SH-SY5Y. Nature of the series: Inhibition of Cu2+-induced toxicity in human SH-SY5Y cells expressing APPswe mutant assessed as increase in cell viability at 1 uM after 72 hrs by WST1 assay. Format: cell-based.
Series [15] deals with SH-SY5Y. Description: Inhibition of Cu2+-induced caspase-3 activity in human SH-SY5Y cells expressing APPswe mutant at 1 uM after 72 hrs by AcDEVD substrate-based spectrophotometric analysis. In kind it is cell-based.
Series [16] has as its system SH-SY5Y. Description: Inhibition of Fe3+-induced caspase-3 activity in human SH-SY5Y cells expressing APPswe mutant at 1 uM after 72 hrs by AcDEVD substrate-based spectrophotometric analysis. In kind it is cell-based.
The test system of series [17] is SH-SY5Y. Nature of the series: Inhibition of Fe3+-induced toxicity in human SH-SY5Y cells expressing APPswe mutant assessed as increase in cell viability at 1 uM after 72 hrs by WST1 assay. In kind it is cell-based.
The nature of series [18]: Effective permeability of the compound at 10^-5 mol/L after 5 hrs by UV-based PAMPA. Format: ADME. To be noted: read-out: Peff. A general note: In PAMPA a lipid-coated filter parts donor from acceptor wells.

Regarding `C[C@H](CCC(=O)Nc1ccc(C(=O)N/N=C/c2ccc3ccccc3n2)cc1)[C@H]1CC[C@H]2[C@@H]3[C@H](O)C[C@@H]4C[C@H](O)CC[C@]4(C)[C@H]3C[C@H](O)[C@]12C` (stereo in doubt), the inhibition entry with SH-SY5Y [1], with SH-SY5Y [2], in the series on SH-SY5Y [4], in the series with SH-SY5Y [5], in the series with SH-SY5Y [8] and with SH-SY5Y [9] was “inactive” in each case. Moreover, the inhibition entry in series [12] is “inactive”. Also, in the series with SH-SY5Y [3], the Activity entry is “Non-Toxic”. The outcome in the series on SH-SY5Y [6] was inactive. Further, the outcome in series [7], in series [10] and in [11] was Active.
For `CCN1/C(=C/c2c(N/N=C/c3ccc4ccccc4n3)c(=O)c2=O)Sc2ccccc21`, the inhibition entry in the series with SH-SY5Y [1], with SH-SY5Y [2], with SH-SY5Y [4], with SH-SY5Y [5], in the series on SH-SY5Y [8] and with SH-SY5Y [9] was “inactive” throughout. Also, the inhibition entry in [12] is “inactive”. In addition, the Activity entry in the series with SH-SY5Y [3] is listed as “Non-Toxic”. Also, the outcome in the series on SH-SY5Y [6] was inactive. In addition, the outcome in series [7], in series [10] and in [11] was Active.
Regarding `COc1cccc(/C=N/Nc2nncc3ccccc23)c1O`, the inhibition result in the series with SH-SY5Y [2], with SH-SY5Y [5] and with SH-SY5Y [8] was “inactive” in each case. Moreover, the result in the series on SH-SY5Y [6] was inactive. For the same molecule, the outcome in series [7], in series [10] and in series [11] was Active. Also, in the series on SH-SY5Y [13], the Activity entry was “Toxic”.
With `C[C@H](CCC(=O)NN=C(c1ccccn1)c1ccccn1)[C@H]1CC[C@H]2[C@@H]3[C@H](O)C[C@@H]4C[C@H](O)CC[C@]4(C)[C@H]3C[C@H](O)[C@]12C`, the inhibition entry with SH-SY5Y [14], in the series on SH-SY5Y [15], in the series with SH-SY5Y [2], with SH-SY5Y [16], in the series with SH-SY5Y [8] and in the series with SH-SY5Y [17] was “Active” throughout. In addition, the Activity result in the series with SH-SY5Y [3] was “Non-Toxic”. Further, the outcome (in the series with SH-SY5Y [6]; in series [7]; in series [11]) was Active. The result in series [10] was inactive. In addition, in series [12], the inhibition result is “inactive”.
As for `C(=N\Nc1nncc2ccccc12)/c1ccc2ccccc2n1`, the result (with SH-SY5Y [6]; in series [7]; in series [10]) was inactive. Besides, in the series on SH-SY5Y [13], the Activity entry is given as “Toxic”. Further, the inhibition result in the series with SH-SY5Y [8] was “inactive”. In addition, the outcome in series [11] was Active.
For the molecule `C[C@H](CCC(=O)Nc1ccc(C(=O)N/N=C/c2ccc(C(C)(C)C)cc2O)cc1)[C@H]1CC[C@H]2[C@@H]3[C@H](O)C[C@@H]4C[C@H](O)CC[C@]4(C)[C@H]3C[C@H](O)[C@]12C` (stereo in doubt), the inhibition result in the series on SH-SY5Y [1], in the series on SH-SY5Y [2], with SH-SY5Y [4], in the series with SH-SY5Y [5], with SH-SY5Y [8] and in the series with SH-SY5Y [9] was “inactive” in each case. Besides, the inhibition entry in [12] was “inactive”. The Activity entry in the series with SH-SY5Y [3] is on record as “Non-Toxic”. Also, the outcome in the series with SH-SY5Y [6] was inactive. The result in [7], in [10] and in series [11] was Active.
For the molecule `COc1cccc(/C=N/NC(=O)c2ccc(NC(=O)CC[C@@H](C)[C@H]3CC[C@H]4[C@@H]5[C@H](O)C[C@@H]6C[C@H](O)CC[C@]6(C)[C@H]5C[C@H](O)[C@]34C)cc2)c1O` (stereo in doubt), the inhibition result in the series with SH-SY5Y [1], with SH-SY5Y [2], with SH-SY5Y [4], in the series on SH-SY5Y [5], with SH-SY5Y [8] and in the series on SH-SY5Y [9] was “inactive” throughout. Besides, in [12], the inhibition entry is “inactive”. Besides, the Activity result in the series on SH-SY5Y [3] is on record as “Non-Toxic”. For the same molecule, in the series on SH-SY5Y [6], the result was inactive. For the same molecule, the outcome in series [7], in series [10] and in series [11] was Active.
On to `CCN1/C(=C/c2c(N/N=C/c3c(CO)cnc(C)c3O)c(=O)c2=O)Sc2ccccc21`, for which, in series [18], the Papp at 5 h, 10 µM worked out at 2.8 ×10⁻⁶ cm/s. The inhibition entry (in the series on SH-SY5Y [2]; in the series with SH-SY5Y [4]; with SH-SY5Y [8]; in the series with SH-SY5Y [9]; in series [12]) was “inactive” throughout. Moreover, in the series with SH-SY5Y [3], the Activity result is “Non-Toxic”. The result (with SH-SY5Y [6]; in series [10]) was inactive. Moreover, the outcome in series [7] and in series [11] was Active.
As for `Cc1ncc(CO)c(/C=N/Nc2nncc3ccccc23)c1O`, the Papp at 5 h, 10 µM in [18] was 7.8 ×10⁻⁶ cm/s. Moreover, the inhibition entry in the series on SH-SY5Y [2] and in the series on SH-SY5Y [8] was “inactive” each time. Further, the outcome (with SH-SY5Y [6]; in series [10]) was inactive. Besides, the outcome in [7] and in series [11] was Active. Moreover, the Activity entry with SH-SY5Y [13] was “Toxic”.
Regarding `COc1ccc(Nc2c(N/N=C/c3c(CO)cnc(C)c3O)c(=O)c2=O)cc1`, the Papp at 5 h, 10 µM in series [18] was 1.6 ×10⁻⁶ cm/s. The inhibition entry (with SH-SY5Y [2]; in the series on SH-SY5Y [4]; in the series on SH-SY5Y [8]; in the series on SH-SY5Y [9]; in series [12]) was “inactive” in each case. Besides, the Activity result in the series with SH-SY5Y [3] was “Non-Toxic”. Besides, the result (in the series on SH-SY5Y [6]; in [10]) was inactive. For the same molecule, the result in [7] and in series [11] was Active.
On to `Cc1ncc(CO)c(/C=N/NC(=O)c2ccc(NC(=O)CC[C@@H](C)[C@H]3CC[C@H]4[C@@H]5[C@H](O)C[C@@H]6C[C@H](O)CC[C@]6(C)[C@H]5C[C@H](O)[C@]34C)cc2)c1O` (stereo in doubt), for which the Papp at 5 h, 10 µM in series [18] was 2.2 ×10⁻⁶ cm/s. Also, the inhibition result in the series with SH-SY5Y [1], in the series on SH-SY5Y [2], with SH-SY5Y [4], in the series on SH-SY5Y [5], in the series on SH-SY5Y [8] and in the series on SH-SY5Y [9] was “inactive” each time. Further, in [12], the inhibition result is “inactive”. For the same molecule, the Activity entry in the series on SH-SY5Y [3] is “Non-Toxic”. Further, the outcome with SH-SY5Y [6] was inactive. The outcome in series [7], in series [10] and in [11] was Active.
With `CC(C)(C)c1ccc(O)c(/C=N/Nc2nncc3ccccc23)c1`, the inhibition result in the series on SH-SY5Y [2], in the series with SH-SY5Y [5] and in the series on SH-SY5Y [8] was “inactive” throughout. In addition, the result in the series on SH-SY5Y [6] was inactive. The outcome in [7], in series [10] and in [11] was Active. For the same molecule, the Activity result in the series with SH-SY5Y [13] is listed as “Toxic”.
Regarding `COc1cccc(/C=N/NC(=O)CC[C@@H](C)[C@H]2CC[C@H]3[C@@H]4[C@H](O)C[C@@H]5C[C@H](O)CC[C@]5(C)[C@H]4C[C@H](O)[C@]23C)c1O`, the inhibition result in the series with SH-SY5Y [14] and in the series with SH-SY5Y [15] was “Active” each time. Also, the Activity result in the series with SH-SY5Y [3] was “Non-Toxic”. The result (with SH-SY5Y [6]; in series [11]) was Active. Besides, the result in series [7] and in series [10] was inactive. In addition, the inhibition result (in the series with SH-SY5Y [8]; in series [12]) was “inactive” in each case.
Turning to `c1ccc(C(=NNc2nncc3ccccc23)c2ccccn2)nc1`, the inhibition entry in the series with SH-SY5Y [2], in the series on SH-SY5Y [5] and in the series with SH-SY5Y [8] was “inactive” in each case. In addition, the result in the series with SH-SY5Y [6] was inactive. The result in series [7], in series [10] and in series [11] was Active. Besides, the Activity result in the series on SH-SY5Y [13] is “Toxic”.
